Measured values as given in ChEMBL document CHEMBL1909046, “DrugMatrix in vitro pharmacology data”.

Columns and labels:
[1] = biological target: T1, B2 bradykinin receptor (Homo sapiens, UniProt P30411); type: cell membranes, Membrane; conditions: chem-1; further: in other assays of this panel Not Active means under 50% inhibition at 10 µM
T1 sequence (P30411 whole entry): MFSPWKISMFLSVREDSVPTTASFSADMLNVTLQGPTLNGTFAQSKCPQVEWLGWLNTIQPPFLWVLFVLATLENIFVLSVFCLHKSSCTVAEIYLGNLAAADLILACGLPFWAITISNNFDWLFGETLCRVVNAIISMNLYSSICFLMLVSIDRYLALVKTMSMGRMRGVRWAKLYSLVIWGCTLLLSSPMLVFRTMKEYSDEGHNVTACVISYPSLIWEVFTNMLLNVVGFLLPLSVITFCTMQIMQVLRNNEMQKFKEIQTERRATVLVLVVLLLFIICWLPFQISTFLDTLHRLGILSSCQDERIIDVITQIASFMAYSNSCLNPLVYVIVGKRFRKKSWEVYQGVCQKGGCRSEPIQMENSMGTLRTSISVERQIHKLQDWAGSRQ

[2] = biological target: T2, Calcitonin receptor (Homo sapiens, UniProt P30988); type: cell membranes, Membrane; conditions: t47d; further: in other assays of this panel Not Active means under 50% inhibition at 10 µM
T2 sequence (P30988 whole entry): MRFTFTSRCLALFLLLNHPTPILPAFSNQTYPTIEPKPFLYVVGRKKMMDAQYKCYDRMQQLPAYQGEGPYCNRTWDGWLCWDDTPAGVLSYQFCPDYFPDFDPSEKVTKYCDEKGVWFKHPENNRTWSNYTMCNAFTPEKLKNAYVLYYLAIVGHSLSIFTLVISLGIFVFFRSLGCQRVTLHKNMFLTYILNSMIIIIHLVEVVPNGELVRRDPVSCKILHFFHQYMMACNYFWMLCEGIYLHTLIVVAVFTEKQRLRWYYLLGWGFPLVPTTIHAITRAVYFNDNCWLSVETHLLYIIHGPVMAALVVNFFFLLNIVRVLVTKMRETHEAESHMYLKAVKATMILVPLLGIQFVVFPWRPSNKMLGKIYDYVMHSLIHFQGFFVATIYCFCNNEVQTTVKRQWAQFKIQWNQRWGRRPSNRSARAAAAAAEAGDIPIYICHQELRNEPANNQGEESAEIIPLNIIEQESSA

[3] = DRUGMATRIX: Phosphodiesterase PDE3 enzyme inhibition (substrate: [3H]cAMP + cAMP); type: tissue-based, Homo sapiens; conditions: platelet; Not Active = under 50% inhibition at 10 µM
[4] = DRUGMATRIX: Sodium/nucleoside co-transporter radioligand binding (ligand: nitrobenzylthioinosine); type: cell membranes, Cavia porcellus, Dunkin-Hartley, Cerebral cortex, Membrane; conditions: Not Active = under 50% inhibition at 10 µM
[5] = biological target: Vasopressin V1a receptor (Homo sapiens, UniProt P37288); type: cell membranes, Membrane; conditions: hek293; further: in other assays of this panel Not Active means under 50% inhibition at 10 µM
Sequence of Vasopressin V1a receptor (P37288 whole entry): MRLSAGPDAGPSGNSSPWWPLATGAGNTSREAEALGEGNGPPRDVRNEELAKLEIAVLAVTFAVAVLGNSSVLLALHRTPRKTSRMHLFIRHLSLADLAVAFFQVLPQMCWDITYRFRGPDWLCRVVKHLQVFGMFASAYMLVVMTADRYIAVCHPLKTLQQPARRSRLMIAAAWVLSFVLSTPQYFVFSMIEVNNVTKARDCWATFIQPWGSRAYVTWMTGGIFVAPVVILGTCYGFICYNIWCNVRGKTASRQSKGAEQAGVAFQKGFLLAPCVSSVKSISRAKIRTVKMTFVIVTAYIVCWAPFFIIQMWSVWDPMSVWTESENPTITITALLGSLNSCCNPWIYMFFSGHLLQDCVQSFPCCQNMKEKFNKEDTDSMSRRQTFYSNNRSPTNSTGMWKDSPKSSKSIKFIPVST

[6] = biological target: Sigma non-opioid intracellular receptor 1 (Homo sapiens, UniProt Q99720); assay: DRUGMATRIX: Sigma1 radioligand binding (ligand: [3H] Haloperidol); type: cell membranes, Jurkat, Membrane; conditions: jurkat; Not Active = under 50% inhibition at 10 µM
Sequence of Sigma non-opioid intracellular receptor 1 (Q99720 whole entry): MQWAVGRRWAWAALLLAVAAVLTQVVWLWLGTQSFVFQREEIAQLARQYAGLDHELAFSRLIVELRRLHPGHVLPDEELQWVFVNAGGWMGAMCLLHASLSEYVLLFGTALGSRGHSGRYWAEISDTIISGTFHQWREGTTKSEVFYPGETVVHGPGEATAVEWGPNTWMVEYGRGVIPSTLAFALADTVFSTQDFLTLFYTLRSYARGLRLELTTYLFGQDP

[7] = DRUGMATRIX: Serotonin (5-Hydroxytryptamine) 5-HT3 radioligand binding (ligand: [3H] GR-65630); type: cell membranes, Membrane; conditions: hek293; Not Active = under 50% inhibition at 10 µM

COc1ccccc1N
Not Active: IC50 [1] | IC50 [2] | IC50 [3] | Ki [3] | IC50 [4] | Ki [4] | IC50 [5] | IC50 [6] | IC50 [7] | Ki [7]

Cc1c(O)cccc1C(=O)N[C@@H](CSc1ccccc1)[C@H](O)CN1C[C@H]2CCCC[C@H]2C[C@H]1C(=O)NC(C)(C)C
Not Active: IC50 [1] | IC50 [2] | IC50 [3] | Ki [3] | IC50 [4] | Ki [4] | IC50 [5] | IC50 [6] | IC50 [7] | Ki [7]

C[C@H]1O[C@H](O[C@H]2[C@H](O)[C@@H](O)[C@@H](O[C@H]3[C@H](O)[C@@H](O)C(O)O[C@@H]3CO)O[C@@H]2CO)[C@H](O)[C@@H](O)[C@@H]1N[C@H]1C=C(CO)[C@@H](O)[C@H](O)[C@H]1O (some centres undefined) [ACARBOSE]
Not Active: IC50 [1] | IC50 [2] | IC50 [3] | Ki [3] | IC50 [4] | Ki [4] | IC50 [5] | IC50 [6] | IC50 [7] | Ki [7]

NC12CC3CC(CC(C3)C1)C2 [AMANTADINE]
Not Active: IC50 [1] | IC50 [2] | IC50 [3] | Ki [3] | IC50 [4] | Ki [4] | IC50 [5] | IC50 [6] | IC50 [7] | Ki [7]

CC(C)c1c(C(=O)Nc2ccccc2)c(-c2ccccc2)c(-c2ccc(F)cc2)n1CC[C@@H](O)C[C@@H](O)CC(=O)O [ATORVASTATIN]
Not Active: IC50 [1] | IC50 [2] | IC50 [3] | Ki [3] | IC50 [4] | Ki [4] | IC50 [5] | IC50 [6] | IC50 [7] | Ki [7]

C[C@H]1[C@H](NC(=O)/C(=N\OC(C)(C)C(=O)O)c2csc(N)n2)C(=O)N1S(=O)(=O)O [AZTREONAM]
Not Active: IC50 [1] | IC50 [2] | IC50 [3] | Ki [3] | IC50 [4] | Ki [4] | IC50 [5] | IC50 [6] | IC50 [7] | Ki [7]

COc1cc(OC)c(C(=O)CCCN2CCCC2)c(OC)c1 [BUFLOMEDIL]
Not Active: IC50 [1] | IC50 [2] | IC50 [3] | Ki [3] | IC50 [4] | Ki [4] | IC50 [5] | IC50 [7] | Ki [7]

Cn1c(=O)c2c(ncn2C)n(C)c1=O [CAFFEINE]
Not Active: IC50 [1] | IC50 [2] | IC50 [3] | Ki [3] | IC50 [4] | Ki [4] | IC50 [5] | IC50 [6] | IC50 [7] | Ki [7]

CO/N=C(\C(=O)N[C@@H]1C(=O)N2C(C(=O)O)=C(COC(C)=O)CS[C@H]12)c1csc(N)n1 [CEFOTAXIME]
Not Active: IC50 [1] | IC50 [2] | IC50 [3] | Ki [3] | IC50 [4] | Ki [4] | IC50 [5] | IC50 [6] | IC50 [7] | Ki [7]

Cc1cc(O)cc(C)c1Cl [CHLOROXYLENOL]
Not Active: IC50 [1] | IC50 [2] | IC50 [3] | Ki [3] | IC50 [4] | Ki [4] | IC50 [5] | IC50 [6] | IC50 [7] | Ki [7]

NS(=O)(=O)c1cc(C2(O)NC(=O)c3ccccc32)ccc1Cl (centres undefined) [CHLORTHALIDONE]
Not Active: IC50 [1] | IC50 [2] | IC50 [3] | Ki [3] | IC50 [4] | Ki [4] | IC50 [5] | IC50 [6] | IC50 [7] | Ki [7]

COc1cccc2c1C(=O)c1c(O)c3c(c(O)c1C2=O)C[C@@](O)(C(C)=O)C[C@@H]3O[C@H]1C[C@H](N)[C@H](O)[C@H](C)O1 [DAUNORUBICIN]
Not Active: IC50 [1] | IC50 [2] | IC50 [3] | Ki [3] | IC50 [4] | Ki [4] | IC50 [5] | IC50 [6] | IC50 [7] | Ki [7]

C[S+](C)[O-] [DIMETHYL SULFOXIDE]
Not Active: IC50 [1] | IC50 [2] | IC50 [3] | Ki [3] | IC50 [4] | Ki [4] | IC50 [5] | IC50 [6] | IC50 [7] | Ki [7]

C[C@]12CC[C@@H]3c4ccc(O)cc4CC[C@H]3[C@@H]1C[C@@H](O)[C@@H]2O [ESTRIOL]
Not Active: IC50 [1] | IC50 [2] | IC50 [3] | Ki [3] | IC50 [4] | Ki [4] | IC50 [5] | IC50 [6] | IC50 [7] | Ki [7]

C#C[C@]1(O)CC[C@H]2[C@@H]3CCC4=CC(=O)CC[C@]4(C)[C@H]3CC[C@@]21C [ETHISTERONE]
Not Active: IC50 [1] | IC50 [2] | IC50 [3] | Ki [3] | IC50 [4] | Ki [4] | IC50 [5] | IC50 [6] | IC50 [7] | Ki [7]

CC(O)(P(=O)(O)O)P(=O)(O)O [ETIDRONIC ACID]
Not Active: IC50 [1] | IC50 [2] | IC50 [3] | Ki [3] | IC50 [4] | Ki [4] | IC50 [5] | IC50 [6] | IC50 [7] | Ki [7]

O=C(O)P(=O)(O)O [FOSCARNET]
Not Active: IC50 [1] | IC50 [2] | IC50 [3] | Ki [3] | IC50 [4] | Ki [4] | IC50 [5] | IC50 [6] | IC50 [7] | Ki [7]
